Converted amounts (≈) assume the structure as drawn. Like-named read-outs stand apart in the source and are kept apart here.
Tests used:
[1] = system: chloroform-induced ventricular fibrillation in mice; assay: Antiarrhythmic activity against chloroform-induced ventricular fibrillation in mice; format: in vivo; conditions: Mus musculus, iv, 1 minute before inducing ventricular fibrillation; male mice 20-25 gm; read-out: ED50 (dose which reduces the number of animals which show fibrillations by 50%)
Protocol: 2. Antiarrhythmic activity against chloroform-induced ventricular fibrillation in mice
Upon putting a mouse into a chloroform-saturated atmosphere, the animal is anaesthetized after 40 seconds, the spontaneous respiration stops, and after 20 seconds more, gasping respiration is seen.
During 1 minute after opening the thorax spontaneous ventricular fibrillation can be obtained in nearly all the animals or can be induced in others by touching the heart with tweezers.
Pretreatment with antiarrhythmic compounds reduces the number of animals which show fibrillations in a dose-dependent way. The dose which reduces the number of animals by 50% (ED50) is calculated by means of dose-response-curves, and the standard error is determined [Miller, L.C. and Tainter, M.L., Proc. Soc. Exp. Biol. Med. 57, 261 (1944)].
The tests were performed on male mice having a body weight of 20-25 gm. Each dose was tested on 10 animals.
The compounds were administered intravenously 1 minute before inducing ventricular fibrillation.

[2] = system: isolated electrically stimulated left auricle of the guinea pig; assay: Effect on the effective refractory period of the isolated electrically stimulated left auricle of the guinea pig (maximum driving frequency); conditions: Cavia porcellus, Tyrode solution 37° C, mean change 5 and 10 minutes after addition, graphically determined from dose-response-curves, read-out: EC50 (concentration which reduces the maximum driving frequency by 50%)
Protocol: 1. Effect on the effective refractory period of the isolated electrically stimulated left auricle of the guinea pig
Guinea pigs of both sexes were killed by a blow on the neck. After opening the thorax, the heart was quickly removed and transferred to a Tyrode solution (37° C). The auricles were therein dissected, and only the left auricles were used. Electrical stimulation was performed by a Grass Stimulator, S4G, with square wave impulses of 1 millisecond duration and a stimulation voltage of 12 V. The auricles were suspended in Tyrode solution at 37° C containing NaCl: 136.8 mval/liter; KCl: 2.68 mval/liter; MgCl2 : 0.2625 mval/liter; NaH2 PO4 : 0.417 mval/liter; NaHCO3 : 11.9 mval/liter; CaCl2 : 1.8 mval/liter; glucose: 3 gm. The solution was continuously oxygenated with 98% O2 and 2% CO2. The isometric contractions were measured with a force-displacement transducer and recorded on a Grass-polygraph (P5).
The auricles were stimulated with 0.5 Hz. The maximum driving frequency was measured by increasing the stimulation rate every 10 seconds by 1 Hz. Measurements were performed three times every 5 minutes before and 5 and 10 minutes after the addition of the test compound. During the rest periods between the measurements the stimulation frequency was 0.5 Hz.
The effect of the compound was calculated as the mean change of maximum driving frequency 5 and 10 minutes after adding the compound. The compound was tested by increasing the concentration to obtain dose-response-curves and to calculate the EC50.
The maximum driving frequency is measured by increasing the stimulation rate. When the interval between two stimuli is shortened, a stimulation rate is reached at which every second stimulation falls into the refractory period of the foregoing contraction and will not be answered with a contraction. Thus, the maximum driving frequency is a measure for the effective refractory period. Compounds which reduce the maximum driving frequency prolong the refractory period.
From the dose-response-curves the following concentrations, which reduce the maximum driving frequency by 50%, were graphically determined: […]

[3] = Acute toxicity in mice; conditions: mouse, in vivo, observation time: 14 days
Protocol: The acute toxicity of the test compounds was determined in mice (observation time: 14 days) after oral and/or intravenous application. The LD50 was calculated from the percentage of animals which died within the observation time after administration of various doses [see J. Pharmacol. exp. Therap. 96, 99 (1949)].

[4] = intravenous, read-out: LD50 i.v.

Row | EC50 [2] [µg/mL] | Compound | ED50 [1] [mg/kg] | LD50 at 336 h ([3]; oral, read-out: LD50 p.o.) [mg/kg] | LD50 at 336 h [3, 4] [mg/kg]
1 | 5.5 (≈ 11.2 µM) | CN(CCCN1C(=O)c2ccccc2C(C)(C)C1=O)CCCN1C(=O)c2ccccc2C(C)(C)C1=O [A, n,n-bis-[3-(3,4-dihydro-4,4-dimethyl-1,3-dioxo-2-(1H)-isoquinolyl)-propyl]-methylamine] | 1.2 |  | 
2 | 2 (≈ 3.97 µM) | CCN(CCCN1C(=O)c2ccccc2C(C)(C)C1=O)CCCN1C(=O)c2ccccc2C(C)(C)C1=O [C, n,n-bis-[3-(3,4-dihydro-4,4-dimethyl-1,3-dioxo-2(1H)-isoquinolyl)-propyl]-ethylamine] | 0.5 |  | 
3 | 4.2 (≈ 8.31 µM) | COc1ccc2c(c1)C(=O)N(CCN(C)CCCN1C(=O)c3ccccc3C(C)(C)C1=O)C(=O)C2(C)C [D, n-[2-(3,4-dihydro-7-methoxy-4,4-dimethyl-1,3-dioxo-2-(1H)-isoquinolyl)-ethyl]-N-[3-(3,4-dihydro-4,4-dimethyl-1,3-dioxo-2(1H)-isoquinolyl)-propyl]-methylamine] | 3.6 |  | 
4 |  | CN(CCN1C(=O)c2ccccc2C(C)(C)C1=O)CCN1C(=O)c2ccccc2C(C)(C)C1=O [F, n,n-bis-[2-(3,4-dihydro-4,4-dimethyl-1,3-dioxo-2(1H)-isoquinolyl)-ethyl]-methylamine] | 4.6 |  | 
5 | 2.7 (≈ 5.85 µM) | CC1(C)C(=O)N(CCCNCCN2C(=O)c3ccccc3C(C)(C)C2=O)C(=O)c2ccccc21 [G, n-[2-(3,4-dihydro-4,4-dimethyl-1,3-dioxo-2(1H)-isoquinolyl)-ethyl]-N-[3-(3,4-dihydro-4,4-dimethyl-1,3-dioxo-2(1H)-isoquinolyl)-propyl]-amine] | 4.7 |  | 
6 | 10 (≈ 20.4 µM) | CC1(C)C(=O)N(CCCCNCCCN2C(=O)c3ccccc3C(C)(C)C2=O)C(=O)c2ccccc21 [H, [3-(3,4-dihydro-4,4-dimethyl-1,3-dioxo-2(1H)-isoquinolyl)-propyl]-[4-(3,4-dihydro-4,4-dimethyl-1,3-dioxo-2(1H)-isoquinolyl)-butyl]-amine] | 3 |  | 

Row | Compound | EC50 [2] [µg/mL] | ED50 [1] [mg/kg] | LD50 at 336 h ([3]; oral, read-out: LD50 p.o.) [mg/kg] | LD50 at 336 h [3, 4] [mg/kg]
7 | CC1(C)C(=O)N(CCCNCCCN2C(=O)c3ccccc3C(C)(C)C2=O)C(=O)c2ccccc21 [B, N,N-bis-[3-(3,4-dihydro-4,4-dimethyl-1,3-dioxo-2(1H)-isoquinolyl)propyl]-amine] | 8 (≈ 16.8 µM) | 2.5 | 123 | 
8 | CC1(C)C(=O)N(CCNCCN2C(=O)c3ccccc3C(C)(C)C2=O)C(=O)c2ccccc21 [I, bis-[2-(3,4-dihydro-4,4-dimethyl-1,3-dioxo-2(1H)-isoquinolyl)-ethyl]-amine] | 2.2 (≈ 4.92 µM) | 4.7 | 315 | 15
9 | CC1(C)C(=O)N(CCCCNCCN2C(=O)c3ccccc3C(C)(C)C2=O)C(=O)c2ccccc21 [J, [2-(3,4-dihydro-4,4-dimethyl-1,3-dioxo-2(1H)-isoquinolyl)-ethyl]-[4-(3,4-dihydro-4,4-dimethyl-1,3-dioxo-2(1H)-isoquinolyl)-butyl]-amine] | 1.8 (≈ 3.78 µM) | 2.8 | 210 | 10.5

Source: patent US4031219A, “Bis-homophthalimides and salts thereof” (Boehringer Ingelheim GmbH, priority 1975, dated 1977)
